# Reference: ChEMBL document CHEMBL1201862, “PubChem BioAssay data set” (2004)
# Active and inactive are the calls of the source.
# Experiments:
# [1] = NIH-3T3 fibroblast cytotoxicity, dose response, cytotoxicity control, cell-based, fluorescence, Alamar Blue, secondary assay (AID 2327); format: functional;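 note: NIH-3T3 mouse fibroblasts cultured with fluconazole at 8 µg/mL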
# [2] = fluconazole-exposed Candida albicans growth modulators – fluorescence, retest, confirmation (AID 2467); format: functional, cell-based
# [3] = THP-1 cell cytotoxicity, dose response, cytotoxicity control for non-replicating M. tuberculosis project (AID 489025); format: functional
# [4] = HepG2 cell cytotoxicity, dose response, cytotoxicity control for non-replicating M. tuberculosis project (AID 489018); format: functional; details: Mycobacterium tuberculosis
# [5] = Vero E6 cell cytotoxicity, dose response, cytotoxicity control for non-replicating M. tuberculosis project, secondary assay (AID 492998); format: functional, VeroE6; details: Vero C1008
# cells = format: functional
# [6] = luciferase reporter signal suppression in cells – H4 neuroglioma cells, luminescence, dose response (AID 1990); format: functional, cell-based
# [7] = Luminescence Cell-Based Dose Response HTS to Identify Inhibitors of 5'UTR Stem-Loop Driven Prion Protein mRNA Translation in H4 Neuroglioblastoma Cells. [Related pubchem assays: 1827 (Project Summary), 1813 (Primary HTS)]; format: functional
# [8] = alpha-synuclein stem-loop luciferase translation blockers – H4 neuroglioma cells, luminescence, confirmation (AID 1988); format: functional, cell-based
# [9] = microbe, parasite or virus in culture; format: functional; details: Mycobacterium tuberculosis
# INS1 = test: INS-1E survival protection against cytokine death – cell-based, luminescence, retest, dose response (AID 449756); format: functional; details: Rattus norvegicus;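 note: cell death triggered by IL-1 beta plus TNF-alpha plus IFN-gamma mixture; protective hits raise ATP signal compared with cytokine alone wells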
# [10] = molecular target: T1, DNA repair protein RAD52 homolog (Homo sapiens, UniProt P43351); format: functional, biochemical
# T1 sequence (P43351 whole entry): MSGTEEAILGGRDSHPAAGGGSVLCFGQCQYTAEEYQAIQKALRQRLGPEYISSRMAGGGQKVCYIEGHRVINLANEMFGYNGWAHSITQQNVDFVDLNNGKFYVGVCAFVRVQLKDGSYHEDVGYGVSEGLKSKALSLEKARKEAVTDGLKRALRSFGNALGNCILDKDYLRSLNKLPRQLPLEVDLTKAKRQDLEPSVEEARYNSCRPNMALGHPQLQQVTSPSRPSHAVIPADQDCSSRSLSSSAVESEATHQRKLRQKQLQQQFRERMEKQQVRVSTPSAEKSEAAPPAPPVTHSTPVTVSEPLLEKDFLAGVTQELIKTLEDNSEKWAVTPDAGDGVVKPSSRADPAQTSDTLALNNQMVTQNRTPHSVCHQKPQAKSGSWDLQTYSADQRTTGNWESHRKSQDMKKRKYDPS
# Paired box protein Pax-8 = Paired box protein Pax-8 (Homo sapiens, UniProt Q06710); test: PAX8 transcriptional activity inhibition in RMG-I – RMG-I cells, luciferase, cherry-pick, dose response (AID 687027); format: functional, cell-based;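 note: luciferase reporter driven by Pax8 target thyroperoxidase promoter measured by SteadyGlo luminescence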
# Chain of Paired box protein Pax-8 (Q06710 whole entry): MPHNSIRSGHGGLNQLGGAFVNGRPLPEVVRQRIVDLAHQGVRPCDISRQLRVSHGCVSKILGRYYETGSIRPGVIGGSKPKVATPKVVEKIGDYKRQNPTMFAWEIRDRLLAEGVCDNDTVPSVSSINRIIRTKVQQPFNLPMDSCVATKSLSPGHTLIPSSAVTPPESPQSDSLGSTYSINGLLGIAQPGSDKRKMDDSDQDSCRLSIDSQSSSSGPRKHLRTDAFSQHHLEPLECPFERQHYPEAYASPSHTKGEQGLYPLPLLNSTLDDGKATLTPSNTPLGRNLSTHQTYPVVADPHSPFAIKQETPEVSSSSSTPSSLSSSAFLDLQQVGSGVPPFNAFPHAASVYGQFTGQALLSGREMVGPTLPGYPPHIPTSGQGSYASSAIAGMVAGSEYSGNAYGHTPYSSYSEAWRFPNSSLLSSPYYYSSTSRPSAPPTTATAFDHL
SMILES,EC50 [1],EC50 [2],CC50 [3],CC50 [4],CC50 [5],IC50 (cells),EC50 [6],EC50 [7],EC50 [8],CC50 [9],AC50 (INS1),AC50 [10],AC50 (Paired box protein Pax-8)
COc1cccc(-c2nnc(NC(=O)c3ccc4ncsc4c3)o2)c1,> 150 µM (inconclusive),1.9 µM (active),23.5 µM (active),> 20 µM (active),13 µM (active),11.7 µM (active),–,–,–,–,–,–,–
Cc1cc(C)n(-c2nc(NCCN(C)C)c3c4c(sc3n2)CCCC4)n1,8.65 µM (inconclusive),11.3 µM (active),12.7 µM (active),9.27 µM (active),5.33 µM (active),13.8 µM (active),6.98 µM (active),8.38 µM (active),8.07 µM (active),10.3 µM (active),8.03 µM (active),7 µM (active),22.9 µM (active)
